Measured values reported in patent US8394767B2, “Methods of treating cancer using the calcitonin-gene related peptide (“CGRP”) receptor antagonist CGRP8-37” (University of Rochester, priority 2008, dated 2013).
One block for each molecule: values may come before it. No end group written: not given here.

Legend:
[1] = tested on: rodent receptors over human receptors; settings: cited from earlier work
anti-CGRP antibody JH84 = test: Fluorescent competition assay with FL-CGRP tracer on immobilized antibody; type: binding; settings: JH84 bound to 96-well plate, 100 pM FL-CGRP as tracer
Procedure: FIG. 11 is a graph illustrating that FL-CGRP can be used for a competition assay to determine CGRP concentrations. Affinity-purified JH84 antibody (100 ng/well) was linked to wells in a 96-well plate, and incubated with 100 pM FL-CGRP and increasing concentrations of unlabeled CGRP. Unbound peptide was washed from well, and fluorescence detected in a Perkin Elmer plate reader.
FL-CGRP was then used to develop a fluorescent competition assay. Affinity-purified anti-CGRP antibody JH84 was bound to the wells of a 96-well plate and […] FL-CGRP was incubated as tracer with either unlabeled CGRP, the homologous neuropeptide adrenomedullin (AM), or the CGRP antagonist CGRP(8-37). […] Thus, the antagonist could not totally compete with FL-CGRP for binding to the antibodies.

FL-CGRP = target: T1, FL-CGRP (Rattus norvegicus, UniProt P01256); test: Immunoprecipitation of FL-CGRP by anti-CGRP antibodies; type: binding; settings: saturating unlabeled CGRP
T1 sequence (P01256 83-119 limits assumed): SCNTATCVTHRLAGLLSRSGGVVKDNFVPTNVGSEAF
From the text: FIGS. 10A-B illustrate the immunoprecipitation of FL-CGRP using anti-CGRP antibodies JH84 and MU33. FIG. 10B schematically illustrates the binding sites of these antibodies.
To be useful for development of non-radioactive competition assays, which will be useful for quantifying CGRP in tissues and cells, the FL-label at lysine^24 cannot inhibit anti-CGRP antibody binding. […] The binding sites for JH84 and MU33 on CGRP are illustrated schematically in FIG. 10B.

[2] = tested on: MDA-MB-231BR breast cancer cells; test: MDA-MB-231BR breast cancer cell growth assay (CyQuant Direct Proliferation Assay); type: cell-based, human; settings: normoxic conditions, after 4 days in culture
Procedure: (§1) FIGS. 4A-B are graphs illustrating that CGRP is a potent stimulator of MDA-MB231BR breast cancer cell growth. MDA-MB231BR cells were seeded in 96-well plates, and grown for the indicated time in either normoxic (4A) or hypoxic (4B) conditions. Media was replaced every 24 hrs with fresh peptide-containing media. On each day, cell number was determined using the CyQuant Direct Proliferation Assay (Invitrogen).
A similar role for CGRP in the stimulation of breast cancer cell growth was observed using the MDA-MB-231BR breast cancer cell line. […] 81:39-48 (2007); Oxmann et al., “Endoglin Expression in Metastatic Breast Cancer Cells Enhances Their Invasive Phenotype,” Oncogene 27:3567-3575 (2008), each of which is herbey incorporated by reference in its entirety). In this assay, CGRP induced the MDA-MB-231BR breast cancer cells 6-fold over control after 4 days in culture under normoxic conditions (FIGS. 4A-B).

CNS1 glioma cells [3] = test: CNS1 glioma tumor cell proliferation assay (CyQuant Direct Proliferation Assay); type: cell-based, rat; settings: for stimulation of glioma growth over control: hypoxic conditions
Procedure: as §1, with “3A-B” for “4A-B”, “CNS1 glioma” for “MDA-MB231BR breast cancer”, “CNS1” for “MDA-MB231BR”, “(3A)” for “(4A)”, “[…]” for “(4B)”
The rat glioma cell line CNS1 was used in a tumor cell proliferation assay. Both AM and CGRP were tested for their ability to stimulate glioma growth. […] More striking was the effect under hypoxic conditions, where CGRP stimulated glioma growth 72-fold over control after 4 days in culture and 10-fold after 5 days in culture (FIG. 3B).

[4] = tested on: CGRP receptors (CLR-cherry and RAMP1); test: FL-CGRP binding to COS1 cells transfected with CLR-cherry and RAMP1 (fluorescence microscopy)
Procedure: FIG. 12 is a panel of microscopy images illustrating that FL-CGRP specifically binds to cells expressing CLR and RAMP1. COS1 cells were transfected with CLR-cherry and RAMP1. 30 nM FL-CGRP was incubated with transfected cells for 30 minutes, and cells were washed 2× with PBS and visualized by phase-contrast microscopy (left panel), and fluorescent microscopy to identify cells expressing the CLR-cherry fusion protein (center panel) and cells that bound FL-CGRP (right panel).
COS1 cells were transfected with a fusion protein containing CLR-fused at its carboxyl terminus to the fluorescent protein cherry. CLR-cherry and RAMP1 were co-transfected into COS1 cells, and 48 hours post-transfection cells were incubated with FL-CGRP, and imaged using phase contrast microscopy (FIG. 12, left panel) as well as fluorescence microscopy for cherry (580 nm) (FIG. 12, center panel) and FL-CGRP (488 nm) (FIG. 12, right panel).

[5] = tested on: breast cancer lines (human MDA-MB-231 and MDA-MB-231 BR, mouse 4T1 and TG1); test: Growth of breast cancer lines constitutively expressing L2/EGFP (FACS-purified); type: cell-based; settings: constitutive promoter
From the text: To determine if the dominant-negative L2/EGFP fusion protein could inhibit CLR function in breast cancer cells, four breast cancer lines (human MDA-MB-231 and MDA-MB-231 BR lines and mouse 4T1 and TG1 lines) were transfected with L2/EGFP or GFP alone. MDA-MB231 and MDA-MB-231BR cells that constitutively express GFP were generated as previously described (Evans et al., “CGRP-RCP, a Novel Protein Required for Signal Transduction at Calcitonin Gene-Related Peptide and Adrenomedullin Receptors,” J Biol Chem 275(40):31438-43 (2000); Prado et al., “The Role of the CGRP-Receptor Component Protein (RCP) in Adrenomedullin Receptor Signal Transduction,” Peptides 22(11):1773-81 (2001); and Rosenblatt et al., “Endoproteolysis at Tetrabasic Amino Acid Sites in Procalcitonin Gene-Related Peptide by Pituitary Cell Lines” Peptides 18(4):567-76 (1997), which are hereby incorporated by reference in their entirety). However, when a constitutive promoter was used to express L2/EGFP in these tumor cells, pure fluorescent colonies could not be isolated because, it is believed, the constitutive expression of L2/EGFP was too effective at inhibiting tumor growth.

RCP = target: T2, RCP (Mus musculus, UniProt O35427); test: Co-immunoprecipitation of RCP with L2/EGFP in NIH3T3 cells; type: binding; settings: L2/EGFP transfected into NIH3T3 cells, GFP immunoprecipitation, probed with anti-RCP
T2 construct: endogenous in cells; host or cells: NIH3T3
T2 sequence (O35427 whole entry): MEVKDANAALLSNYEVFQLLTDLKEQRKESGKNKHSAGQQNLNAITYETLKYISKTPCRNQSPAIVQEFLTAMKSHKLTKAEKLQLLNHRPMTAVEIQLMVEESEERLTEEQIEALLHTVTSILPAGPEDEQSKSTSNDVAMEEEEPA
From the text: (§2) FIG. 7A is a schematic illustration showing that the second intracellular loop of CLR was cloned as a fusion protein with enhanced green fluorescent protein (EGFP). […] The immunoprecipitate was separated by SDS-PAGE and probed with an antibody directed against RCP. RCP co-immunoprecipitated with the L2/EGFP fusion protein (lanes 5, 6) indicating an interaction between RCP and the second intracellular loop of CLR.
(§3) A fusion protein was constructed containing the second intracellular loop (“L2” or elsewhere designated “cpd2”) of CLR and the enhanced green fluorescent protein (L2/EGFP) (FIG. 7A). RCP co-immunoprecipitated with the L2/EGFP fusion protein, indicating a direct interaction between the two proteins (FIG. 7B). […] This confirmed the belief that over-expression of L2/EGFP pulls most of the available RCP away from the CGRP receptor complex, and that the CLR/RAMP1 complex is unable to signal. Thus, the site of interaction between the second intracellular loop of CLR and RCP represents a novel control site for signaling at CLR, and represents a candidate for development of anti-proliferative drugs to combat tumor growth.

CGRP receptor [6] = target: T3, CGRP receptor (Mus musculus, UniProt O35427); test: CGRP receptor signaling (cAMP) in NIH3T3 cells expressing L2/EGFP; type: cell-based; settings: L2/EGFP expressed in NIH3T3 cells, which endogenously express CGRP receptors
T3 construct: NIH3T3 cells, which endogenously express CGRP receptors; endogenous in cells; host or cells: NIH3T3
T3 sequence (O35427 whole entry): as above
From the text: as §2, §3

CNS1 glioma cells [7] = test: Growth of CNS1 glioma cells constitutively expressing L2/EGFP (FACS-purified); type: cell-based, rat; settings: constitutive expression
From the text: To examine the role of CLR in glioma proliferation, inhibition of CLR via expression of L2/EGFP was attempted. Although CNS1 cells that constitutively express GFP were generated using published techniques (Evans et al., “CGRP-RCP, A Novel Protein Required for Signal Transduction At Calcitonin Gene-Related Peptide and Adrenomedullin Receptors,” J Biol Chem 275(40):31438-43 (2000); Prado et al., “The Role of the CGRP-Receptor Component Protein (RCP) in Adrenomedullin Receptor Signal Transduction,” Peptides 22(11):1773-81 (2001); Rosenblatt et al., “Endoproteolysis At Tetrabasic Amino Acid Sites in Procalcitonin Gene-Related Peptide by Pituitary Cell Lines,” Peptides 18(4):567-76 (1997), which are hereby incorporated by reference in their entirety), upon transfection of the constitutively expressed L2/EGFP construct, pure fluorescent colonies could not be isolated.

CGRP receptor [8] = settings: oocyte-CFTR assay, Luebke et al. 1996; cited from earlier work

Molecule: NCCCC[C@H](NC(=O)[C@@H](Cc1cc(Br)c(O)c(Br)c1)NC(=O)N1CCC(N2Cc3ccccc3NC2=O)CC1)C(=O)N1CCN(c2ccncc2)CC1 [BIB4096, N-((1R)-2-(((1S)-5-amino-1-((4-(pyridin-4-yl)piperazin-1-yl)carbonyl)pentyl)amino)-1-(3,5-dibromo-4-hydroxybenzyl)-2-oxoethyl)-4-(2-oxo-1,4-dihydroquinazolin-3(2H)-yl)piperidine-1-carboxamide]
lower affinity for rodent receptors over human receptors [1]: 100-1000 ×

Molecule: FL-CGRP: rat CGRP with a single Alexa488 dye molecule attached to the lysine24 residue
binding to CGRP receptors [4]: high-affinity
FL-CGRP binding to cells ([4]; COS1 cells co-transfected with CLR-cherry and RAMP1, 48 hours post-transfection, 30 nM FL-CGRP): only observed to bind to cells that were expressing CLR-cherry
FL-CGRP binding to cells ([4]; untransfected cells): No FL-CGRP binding was detected

Molecule: SEQ ID NO:9: antisense DNA oligonucleotide TGCTCACTGTGTAAGCCTTAAATCCATCAAG (DNA, backbone not given here)
CGRP receptor function (CGRP receptor [8]): inhibit CGRP receptor function

Further lines, with some results ahead:

competition with FL-CGRP for binding to immobilized antibody (anti-CGRP antibody JH84): did not compete
Molecule: AM: the homologous neuropeptide adrenomedullin

competition with FL-CGRP for binding to immobilized antibody (anti-CGRP antibody JH84): partially competed
Molecule: CGRP8-37: peptide CGRP antagonist consisting of residues 8-37 of SEQ ID NO: 2

effect on immunoprecipitation of FL-CGRP by JH84 and MU33 (FL-CGRP): blocked
competition with FL-CGRP for binding to immobilized antibody (anti-CGRP antibody JH84): effectively competed
Molecule: CGRP: 37 amino acid neuropeptide derived from calcitonin-related polypeptide alpha; agonist of the CGRP receptor
induction of MDA-MB-231BR breast cancer cells over control [2]: 6 fold
stimulation of glioma growth over control (CNS1 glioma cells [3]; after 4 days in culture): 72 fold
stimulation of glioma growth over control (CNS1 glioma cells [3]; after 5 days in culture): 10 fold
increase of CNS1 cell growth over control (CNS1 glioma cells [3]; normoxic conditions, after 5 days in culture): 11 fold

co-immunoprecipitation with RCP (RCP): co-immunoprecipitated
signaling at the CGRP receptor as measured by cAMP (CGRP receptor [6]): inhibited signaling at the CGRP receptor
Molecule: L2/EGFP: fusion protein of the second intracellular loop of CLR and enhanced green fluorescent protein; dominant-negative inhibitor of CLR signaling (LIVVAVFAEKQHLMWYYFLGWGFPLIPACIH; also: fusion protein with EGFP)
growth of pure populations of cells expressing the dominant-negative inhibitor [5]: would not grow
growth of pure populations of cells expressing the dominant-negative inhibitor (CNS1 glioma cells [7]): would not grow
